# Laboratory results taken from patent publication US20250177357A1, “METHODS FOR TREATING HYPERTROPHIC CARDIOMYOPATHY” (priority 2021, published 2025).
# Tests used:
# healthy adults [1] = assay: Phase 1 first-in-human study: safety and tolerability (adverse events), SAD and MAD cohorts; conditions: in vivo
# Text: Study Overview and Ethics. The study used a randomized, placebo-controlled, single-ascending dose (SAD) and multiple-ascending dose (MAD) design (FIG. 2). […] Dose escalation was to be stopped when this range was achieved, or when a non-tolerated dose was identified, if earlier.
# Participants and Treatments. To be eligible for this study, participants were to be healthy adults aged 18 to 55 years, with body mass index of 18.0 to 32.0 kg/m^2, normal electrocardiogram (ECG) and clinical laboratory values, or only minor abnormalities that were deemed not clinically significant. Participants also had to have normal cardiac structure and function, with LVEF≥60% for the first 4 SAD cohorts, ≥65% for subsequent SAD cohorts, all MAD cohorts, and the food-effect cohort, and >55% for the CYP2D6-PM cohort. […]
# Safety and tolerability. Safety was assessed by the incidence of adverse events (AEs) and by incidence of reduced LVEF. […]
# For safety monitoring, participants in all cohorts had periodic echocardiograms, which were assessed by a cardiologist. […] In addition, participants in all cohorts were monitored with continuous 12-lead ECG recording using Holter monitors. […] In the SAD, MAD, and CYP2D6-PM cohorts, cardiodynamic ECGs (triplicate 10-second, 12-lead ECG recordings) were obtained prior to the corresponding PK blood and ECG intervals quantitated by qualified readers.
# [2] = tested on: patients with symptomatic oHCM; assay: Open-label extension trial in oHCM: LVOT-G, LVEF, NYHA class, KCCQ; format: in vivo, human
# Text: An open-label extension clinical trial of CK-274 in patients with symptomatic oHCM was initiated.
# Patients who completed the study as described in Example 2 and had not developed atrial fibrillation were eligible to enroll in the study. Echo-guided dose titration based on site reads was managed by the investigator and could occur at any time during the trial, as described below.
# Each patient received Dose 1 of CK-274 once daily for 2 weeks. […] Patients were up-titrated to Dose 2 if either of the following conditions were met on echocardiography: (1) resting LVOT-G≥30 mmHg and the biplane LVEF≥50%; or (2) resting LVOT-G<30 mmHg, post-Valsalva LVOT-G≥50 mmHg, and the biplane LVEF≥50%. Otherwise, the patient remained on 5 mg of CK-274. If LVEF was […], treatment was discontinued. If LVEF was <40%, treatment is interrupted.
# Ambulatory cardiac monitoring is performed on weeks 48, 96, 144, 192 and 240. Cardiac magnetic resonance is monitored at weeks 48, 144 and 240. (See FIG. 26).
# Change in KCCQ scores from baseline, including OSS=overall summary score, CSS=clinical summary score, TSS=total symptom score, PLS=physical limitation score, SLS=social limitation score, QoL=quality of life, were determined. Patients were categorized with worsened (≤−5 points), unchanged (−5 to <5 points), small improvement (5 to <10 points), moderate to large improvement (10 to <20 points), and large to very large improvement (≥20 points) relative to baseline.
# healthy adults [3] = assay: Phase 1 ECG (QTcF), vital signs and clinical laboratory safety; format: in vivo, human
# Protocol: Safety and tolerability. Safety was assessed by the incidence of adverse events (AEs) and by incidence of reduced LVEF. Treatment-emergent AEs (TEAE) were defined as AEs that began or increased after study drug administration. All AEs were coded using the Medical Dictionary for Regulatory Activities version 21.1 and graded using the National Cancer Institute Common Terminology Criteria for AEs (version 4.03) 5-point severity scale. Each AE was judged as either related or unrelated to the study drug by the treating investigator. Clinical laboratory tests were obtained at regular intervals in all cohorts.
# For safety monitoring, participants in all cohorts had periodic echocardiograms, which were assessed by a cardiologist. In the SAD and MAD cohorts, echocardiograms were also reviewed by an echocardiography core laboratory for PD assessments, as described below. In addition, participants in all cohorts were monitored with continuous 12-lead ECG recording using Holter monitors. For safety monitoring, a single 12-lead ECG was extracted at screening, pre-dose, and periodically throughout follow-up, and interpreted by the investigator. In the SAD, MAD, and CYP2D6-PM cohorts, cardiodynamic ECGs (triplicate 10-second, 12-lead ECG recordings) were obtained prior to the corresponding PK blood and ECG intervals quantitated by qualified readers.
# [4] = Phase 1 plasma pharmacokinetics, food-effect cohort; format: in vivo, human; conditions: single 10 mg
# Protocol: Food-effect cohort. […] Participants were randomized in a 1:1 ratio to 1 of 2 sequences: fasted/fed or fed/fasted.
# Pharmacokinetic analyses. For all study groups, blood samples for PK assessment were obtained pre-dose, up to 12 times daily on day 1, and then at regular intervals throughout the study. Blood samples were collected according to the following schedule: SAD Cohorts: Day 1: pre-dose and 0.25, 0.5, 1, 1.5, 2, 2.5, 3, 4, 6, 8, 12, 16, 24, 36, 48, 72, 96, and 216 h post dose. […] CYPD6-PM Cohort: Day 1: pre-dose and 0.25, 0.5, 1, 1.5, 2, 2.5, 3, 4, 6, 8, 12, 16, 24, 36, 48, 72, 96, 216, 312, and 552 h post dose. Food-Effect Cohort: Day 1: pre-dose and 0.25, 0.5, 1, 1.5, 2, 2.5, 3, 4, 6, 8, 12, 16, 24, 36, 48, 72, 96, 144, and 216 h post dose. Standard non-compartmental methods were used to calculate PK parameters using Phoenix® WinNonlin® Version 7.0; actual sample collection times were utilized.
compound,measurement,setting,value
"CCc1nc(-c2ccc3c(c2)CC[C@H]3NC(=O)c2cnn(C)c2)no1 [aficamten, (R)—N-(5-(5-ethyl-1,2,4-oxadiazol-3-yl)-2,3-dihydro-1H-inden-1-yl)-1-methyl-1H-pyrazole-4-carboxamide]",Time to resolution of AEs of decreased ejection fraction <45%,healthy adults [1]; human,2.5 to 4.6 h
same,Post-dose LVEF of 1 participant with LVEF <50%,healthy adults [1],46.2%
same,Participants with very large clinical improvements (≥20 points) in KCCQ,[2]; Week 24,40.0%
same,LVOT gradients (resting and Valsalva) over time,"[2]; Weeks 2-24, site reads",significant and sustained reduction
same,Patients with worsening in NYHA class from baseline,[2]; open-label extension,No patients
same,LVEF over time,[2]; through Week 24,minimal and stable reductions
same,"Serum chemistry, hematology, urinalysis findings",healthy adults [3]; all Phase 1 cohorts,"No clinically significant serum chemistry, hematology, or urinalysis findings"
same,Increases in QTcF interval,healthy adults [3]; all cohorts (exception: 1 placebo participant),≤ 30 ms
same,QTcF at baseline or any assessment during the dosing interval,"healthy adults [3]; all cohorts, exception of 2 individuals with baseline QTcF ≥440 ms",≤ 450 ms
same,QT effect in cardiodynamic assessments,healthy adults [3]; single or multiple doses,no evidence of a positive QT effect
same,"CL/F, mean ± SD","[4]; Fasted, n = 4",2.8 ± 0.6 L/h
same,"CL/F, mean ± SD","[4]; Fed, n = 7",3.1 ± 0.9 L/h
same,Increase in Cmax when taken with food,[4]; fed vs fasted,approximately 30%
